Row | Compound | melting point
1 | Cc1cc(Cl)c(C(=O)c2ccc(Cl)cc2)c(Cl)c1 | 112 to 114 °C
2 | COC(=O)C1CCCC(=C(N)c2ccc(Cl)cc2)C(=O)C1 (stereo not given) | 154 to 155 °C
3 | COC(=O)CCCc1cc2c(Cl)c(C#N)cnc2s1 | 55 to 57 °C
4 | CNC(=S)N(O)C(C)c1cc(C(C)(C)C)c(O)c(C(C)(C)C)c1 (stereo not given) | 175 to 176 °C
5 | CCOC(=O)c1cnn2c1nc(OCCC(C)C)c1cnc3c(cnn3CC)c12 | 117 to 118 °C
6 | CC(C)(C)OC(=O)n1ccc2c([N+](=O)[O-])c(NC(=O)COCc3ccccc3)ccc21 | 145 to 146 °C
7 | CCOC(=O)CCNC(=O)n1nc(Oc2c(Cl)cc(C(F)(F)F)cc2Cl)cc1C | 73 to 74 °C
8 | CNc1c(C#N)c(C(F)(F)F)nn1-c1c(Cl)cc(C(F)(F)F)cc1Cl | 200 to 202 °C
9 | c1ccc(CCCNc2ccc(-c3cc(-c4ccc(NCCCc5ccccc5)cc4)cc(-c4ccc(NCCCc5ccccc5)cc4)c3)cc2)cc1 | 105 °C
10 | CC1=CCCC2C1(C)CCC(C)C2(C)Cc1cc(O)ccc1O (stereo not given) | 146 to 148 °C
11 | C=C(Cl)CNC(=S)SCc1ccccc1 | 46 to 48 °C
12 | COc1ccc(C(=O)CCC(=O)N[C@@H](C)C(=O)O)cc1F | 126 to 128 °C
13 | CCc1cnc(C2=NC(C)(C(C)C)C(=O)N2)c(C(=O)NCCCCCC(=O)O)c1 (stereo not given) | 76 to 81 °C
14 | CC(=O)N(OC(=O)NC(C)(C)C)C(=O)NC(C)(C)C | 111 to 113 °C
15 | N#C/C=C/c1coc2ccccc2c1=O | 192 to 194 °C
16 | CNc1cc(-c2sc(N)nc2-c2cccc(C)n2)ccc1[N+](=O)[O-] | 100 to 102 °C
17 | CC1Cc2cc3c(cc2C(c2ccc([N+](=O)[O-])cc2)=NN1C#N)OCO3 (stereo not given) | 172 to 176 °C
18 | COC(=O)Cc1ccccc1[C@@H]1O[C@H]1c1ccccc1 (relative stereo) | 118 to 119 °C
19 | CN=C(NC#N)NCCSCc1c[nH]cn1 | 138 to 140 °C
20 | O=[N+]([O-])c1cc(I)cc(CF)c1 | 50.5 to 51.5 °C
21 | C#CCn1cncc1CO | 91 to 92.5 °C
22 | CCOC(=O)C(=Cc1ccccc1)S(N)(=O)=O | 88 to 89 °C

Row | Compound | melting point
23 | C=C1C(=O)OC2OC3(C)CCC4C(C)CCC1C24OO3 (stereo not given) | 161 to 162 °C
24 | Nc1noc2cc3c(cc12)C1(CO3)C(=O)N(Cc2ccccn2)c2ccccc21 (stereo not given) | 190 to 192 °C
25 | O=C(O)c1snc(-c2cc(C(F)(F)F)cc(C(F)(F)F)c2)c1C(=O)O | 193 to 194 °C
26 | O=c1[nH][nH]c(=O)c2c(O)c3ccccc3nc12 | > 400 °C
27 | O=C(Nc1ccc(O[C@H]2CC[C@H](C(=O)O)CC2)cc1)c1nnc(Nc2cc(F)c(F)cc2F)o1 | 251 to 253 °C
28 | OC(c1nccs1)(c1nccs1)C(F)(F)F | 113 to 115 °C
29 | NC(=O)CCCCCCn1cccc1 | 228 to 233 °C
30 | CCOC(=O)C(=O)N(C)c1cccccc1=O | 70 to 71 °C
31 | CC(C(=O)O)c1ccc(N2CCC=N2)c(Cl)c1 (stereo not given) | 94 to 102 °C
32 | O=C(Nc1cccc(C(F)(F)F)c1)Nc1nccnc1C(=O)O | > 300 °C
33 | CNc1ccc(Cl)nc1 | 70 °C
34 | COCN1C(C)=C(C(=O)O)C(c2ccccc2)C(C(=O)OCOC(=O)C(C)(C)C)=C1C (single isomer, unassigned; (+)) | 121 to 122 °C
35 | COCCON1C(=O)C(c2c(C)cc(C)cc2C)C(=O)C12CCN(N(C)C)CC2 (stereo not given) | 108 °C
36 | O=C(O)c1cn(Cc2cnsn2)c2c(F)c(F)c(F)cc2c1=O | 220 to 222 °C
37 | O=C(OC1CCCCC1)c1ncn2c1[C@@H]1CCCN1C(=O)c1c-2cccc1C(F)(F)F | 193 to 194 °C
38 | C1CCN(c2nc(N3CCCC3)c3nc(N4CCCCC4)nc(N4CCCC4)c3n2)CC1 | 254 to 256 °C
39 | COC(=O)c1ccsc1N=C=S | 63 to 65 °C
40 | CCNC(=O)Nc1c(Cl)cccc1[Si](C)(C)C | 161 to 163 °C
41 | CCCC(=O)N1CCc2nnc(NN=C(C)C)cc2C1 | 152 to 154 °C
42 | CC(C)(C)C1=CC(=CC#Cc2ccc(C(=O)O)cc2)C=C(C(C)(C)C)C1=O | 216 to 218 °C
43 | COc1ccc(Cl)cc1NC(=O)[C@H]1[C@H](c2ccc(Cl)cc2)C1(C)C (relative stereo) | 162 to 164 °C
44 | CCC(C)(C)NC(=S)Nc1cc(Cl)cc(Cl)c1 | 134 to 136 °C

Row | Compound | melting point
45 | O=C(O)c1cc(Cl)cc2c1NCCO2 | 209 to 210 °C
46 | O=[N+]([O-])C=Cc1ccsc1 | 94.5 to 96.5 °C
47 | CC(C)NC(=O)c1cc2nc(C3CC3)n(C)c2c(Cl)c1NC(=O)c1cc(C(F)(F)F)nn1-c1ncccc1Cl | 242 to 244 °C
48 | Cc1ccc(C2(O)c3c(C)c(N)c(C)c(C)c3OC2(C)C)cc1 (stereo not given) | 165 to 166 °C
49 | COc1cccc(OC)c1-c1nc2nccnc2[nH]1 | 248 to 249 °C
50 | CC1(C)Oc2ccncc2[C@@H](N2CCCC2=O)[C@@H]1O (relative stereo) | 253 °C
51 | Cc1cc(Br)cnc1CCCCNC1=NS(=O)(=O)c2cc(Br)ccc21 | 224 to 232 °C
52 | CC12CCC(OS(=O)(=O)C(F)(F)F)=CC1=CCC1C2CCC2(C)C(C(=O)N(C(=S)NC3CCCCC3)C3CCCCC3)CCC12 (stereo not given) | 123 to 124 °C
53 | CCCn1c(=O)c2[nH]c(C(C)(C)C)nc2n(CCN(C)C(C)=O)c1=O | 149 to 152 °C
54 | Cc1cc(C(C)(C)C)c(O)c2[nH]c(Cc3ccccc3)nc12 | 226 to 228 °C
55 | CCC(=O)C(=Cc1ccc(C#N)cc1)C(=O)CC | 59 to 60 °C
56 | CN(C(=O)c1ccccc1NC(=O)N[C@@H](Cc1ccc(NC(=O)c2c(Cl)cccc2Cl)cc1)C(=O)O)c1ccccc1 | 178 °C
57 | Cc1ccc2c(c1)C(O)(c1ccccn1)CC(C)(C)CO2 (stereo not given) | 126 °C
58 | CCN(CC)CCNC(=O)c1c(I)ccc2cc3ccccc3nc12 | 81 to 83 °C
59 | COc1c(F)c(F)cc2c(=O)c(C(=O)O)cn(C3CC3)c12 | 185 to 186 °C
60 | Cc1c(-c2ccc(F)cc2F)ncnc1C(F)F | 54 to 55 °C
61 | CC(=O)c1ccc2c(c1)S(=O)(=O)c1cc(C(C)=O)ccc1O2 | 219 to 220 °C
62 | COc1ccc(Cn2c(=O)c(C(=O)NC3CCCCC3)c(O)c3cc(F)cnc32)cc1 | 176 °C
63 | O=c1nc(-c2ccccn2)sc2cc(Cl)ccc12 | 245 to 246 °C
64 | NNP(=S)(NN)Oc1ccccc1 | 94 to 95 °C

The remaining lines, values ahead:

Row | melting point | Compound
65 | 228 to 230 °C | O=C(O)C1(c2ccc(Cl)cc2)OCC(c2ccc(F)cc2)(c2ccc(F)cc2)CO1
66 | 129 to 130 °C | CCCNc1ccc(NCc2ccc(NCCC)nc2)nc1
67 | 128 to 129 °C | CCC(O)(c1ccc(OCc2cccc(C)n2)cc1)c1ccccc1C(F)(F)F (stereo not given)
68 | 66 to 67 °C | CCC1(C)OC1COc1ccc(C(=O)c2ccccc2)cc1 (stereo not given)
69 | 120 to 122 °C | Cc1nc(N2CCCC2)c2ccc(Br)cc2n1
70 | 157 °C | COC(=O)CCN1CCCC2(Cc3ccc(Br)cc3)C(=O)N(c3cc(Cl)nc(Cl)c3)C(=O)N12 (stereo not given)
71 | 46 °C | O=C1C(c2ccccc2)=C(c2ccccc2Cl)C(=O)N1c1ccc(Cl)cc1
72 | 74 to 77 °C | COc1ccc(C2CCC(c3ccc4ccccc4c3)O2)cc1OC (stereo not given)
73 | 210 to 212 °C | CC(c1oc2ccccc2c(=O)c1-c1ccc(F)cc1)n1cnc2c(N)ncnc21 (stereo not given)
74 | 109 to 111 °C | S=C(NCN1CCOCC1)C(CN1CCOCC1)c1ccccn1 (stereo not given)
75 | 214 to 215 °C | c1ccc2cc(N3CCN(Cc4n[nH]c5ccccc45)CC3)ncc2c1
76 | 73 to 74 °C | Cc1cc(N2CCC(CN3CCN(S(=O)(=O)c4ccc(Cl)cc4)CC3)CC2)nc(C)n1
77 | 75 to 77 °C | CC(C)[C@H](NC(=O)OCc1ccccc1)C(=O)c1ccc(OCc2ccccc2)cc1
78 | 135 to 138 °C | COc1ccc2c(c1)C(=O)[C@@H](O)[C@](C#Cc1ccccc1)(c1ccccc1)O2 (relative stereo)
79 | 179 to 181 °C | CS(=O)(=O)c1ccc(-c2cnn(CC(F)(F)F)c(=O)c2Oc2ccc(C#N)cc2)cc1
80 | 125 to 127 °C | O=C(c1ccc(-c2ccc3nnn(Cc4ccc5ncccc5c4)c3n2)cc1)N1CCC(N2CCCC2)CC1
81 | 149 to 150 °C | COCC(NC(C)C)c1c[nH]c2cccc(Oc3ccc(Cl)cc3)c12 (stereo not given)
82 | 170 to 171 °C | COCCc1cc(N2CCNCC2)n2nc(SC)c(S(=O)(=O)c3ccccc3)c2n1

Row | melting point | Compound
83 | 170 to 172 °C | O=C(O)COc1ccc(SCc2ccc(OCc3ccc(Cl)cc3)cc2)c2c1CCC2
84 | 70 to 72 °C | O=C1OC(c2ccccc2)=NC1Cc1ccccc1 (racemic)
85 | 151 to 153 °C | Nc1nc(NCCc2ccccc2OCc2ccccc2)nc2nc(-c3ccco3)nn12
86 | 188 to 189 °C | O=C(Nc1ccc(C(F)(F)F)cc1)N1CC(c2ncc(Cl)s2)C(c2ccc(F)cc2)=N1 (stereo not given)
87 | 96 to 100 °C | O=C(c1ccc(F)cc1)N1CCCC(c2nc(Oc3ccccc3)no2)C1 (stereo not given)
88 | 189 °C | O=C1NCCCCC1NC(c1ccccc1)(c1ccccc1)c1ccccc1 (stereo not given)
89 | 72 to 74 °C | COc1ccc2cccc(CO)c2c1
90 | 155 to 156 °C | Cc1nn(-c2ccccc2)cc1C(=O)Nc1ccc(OCC(C)(C)C)c(C#N)c1
91 | 179 to 181 °C | COc1cc(Nc2c(C#N)cnc3cc(-c4coc(CN5CCN(C)CC5)c4)c(OC)cc23)c(Cl)cc1Cl
92 | 265 °C | N#Cc1cn2cc(Br)nc(N3CCOCC3)c2n1
93 | 221 to 223 °C | O=c1nc(-c2ccc(N3CCCC3)nc2)sc2ccccc12
94 | 111 to 113 °C | N#CCc1ccc(CN2CCN(c3ccc(F)cc3)CC2)cc1
95 | 193 to 196 °C | CN(CCOc1ccc(CC(C(=O)O)S(=O)(=O)c2ccccc2)cc1)c1nc2ccccc2o1 (stereo not given)
96 | 202 to 205 °C | COc1ccccc1N1CCN(Cc2ccc(NC(=O)C3=Cc4cc(-c5ccc(C)cc5)ccc4CC3)cc2)CC1
97 | > 260 °C | O=C(c1ccc2ncccc2c1)c1ccc2[nH]c(=O)nc(-c3cccc(Cl)c3)c2c1
98 | 124 to 126 °C | O=C(Nc1ccc(Cl)cc1)c1cccc(Cl)c1
99 | 114 °C | Cc1cccc(CC(=O)c2ccnc(-c3ccc(N4CCOCC4)cc3)c2)n1
100 | 206 to 207 °C | CC(Cl)(Cl)C(NC(=O)c1ccc(Cl)cc1)NC(=NC#N)Nc1ccc(F)nc1 (stereo not given)

Source: a melting point compilation (Tetko et al.; mined from patent text by program, amines drawn as free bases though some values may be those of a salt)
